15 compounds from patent US20100311729A1, “Substituted imidazopyridazines and pyrrolopyrimidines as lipid kinase inhibitors” (priority 2007, published 2010) can be followed below.

For this assay, the target named is T1, PI3K alfa (Homo sapiens, UniProt P42336).
T1 construct: for the p110-a subunit (with a deletion of the first 20 amino acids); His tag (C); made in house; host or cells: baculovirus; Tn5 (Trichoplusia ni) or TiniPro insect cells
T1 sequence (P42336 with tags, fused parts or gaps limits assumed): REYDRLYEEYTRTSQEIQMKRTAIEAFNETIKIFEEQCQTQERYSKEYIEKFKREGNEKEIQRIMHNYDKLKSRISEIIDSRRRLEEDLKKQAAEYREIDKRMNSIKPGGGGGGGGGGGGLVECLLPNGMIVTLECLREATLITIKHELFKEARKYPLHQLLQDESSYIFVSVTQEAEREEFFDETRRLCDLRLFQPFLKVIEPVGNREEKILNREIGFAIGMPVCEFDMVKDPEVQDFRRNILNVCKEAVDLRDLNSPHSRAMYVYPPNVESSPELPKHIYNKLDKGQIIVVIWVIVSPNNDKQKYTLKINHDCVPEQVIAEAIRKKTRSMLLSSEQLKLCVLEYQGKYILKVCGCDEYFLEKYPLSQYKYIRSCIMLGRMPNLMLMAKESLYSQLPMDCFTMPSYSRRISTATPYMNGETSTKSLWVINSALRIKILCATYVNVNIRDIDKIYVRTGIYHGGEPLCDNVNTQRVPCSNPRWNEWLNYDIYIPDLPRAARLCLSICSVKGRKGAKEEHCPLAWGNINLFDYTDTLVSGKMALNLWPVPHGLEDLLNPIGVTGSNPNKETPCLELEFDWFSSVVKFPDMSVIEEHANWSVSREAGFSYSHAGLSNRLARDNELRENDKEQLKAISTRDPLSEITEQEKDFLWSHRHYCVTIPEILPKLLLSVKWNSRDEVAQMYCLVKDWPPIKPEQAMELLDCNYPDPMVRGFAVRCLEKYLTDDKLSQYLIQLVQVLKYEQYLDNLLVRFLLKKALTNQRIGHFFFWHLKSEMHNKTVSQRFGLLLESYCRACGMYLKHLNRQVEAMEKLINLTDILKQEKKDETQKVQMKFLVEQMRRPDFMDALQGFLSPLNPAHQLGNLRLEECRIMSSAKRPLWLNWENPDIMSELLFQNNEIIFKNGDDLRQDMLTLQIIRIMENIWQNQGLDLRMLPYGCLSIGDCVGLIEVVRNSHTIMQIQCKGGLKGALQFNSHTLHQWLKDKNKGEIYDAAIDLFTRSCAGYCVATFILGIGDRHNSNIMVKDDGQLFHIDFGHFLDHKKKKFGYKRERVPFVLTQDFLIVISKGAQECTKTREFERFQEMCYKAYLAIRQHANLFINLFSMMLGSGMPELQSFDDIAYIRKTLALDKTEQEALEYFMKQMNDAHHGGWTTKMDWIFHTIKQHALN
The assay can be described thus: PI3 kinase assay (Kinase-Glo luminescence), PI3K alfa. Format: biochemical. The settings on record: read-out: IC50 (μm) PI3K-alfa. As to the method:
In a more preferred assay, the kinase reaction is performed in a final volume of 10 μL per well of a low volume non binding CORNING, 384 well black plate (Cat. No. #3676). The final concentrations of ATP and phosphatidyl inositol (PI) in the assay are 1 μM and 10 μg/mL respectively. The reaction is started by the addition of ATP.
The components of the assay are added per well as follows:
50 nL test compounds in 90% DMSO per well, in columns 1-20, 8 concentrations (1/3 and 1/3.33 serial dilution step) in single. • Low control: 50 nL of 90% DMSO in half the wells of columns 23-24 (0.45% in final). • High control: 50 nL of reference compound (e.g. compound of Example 7 in WO 2006/122806, incorporated by reference hereinin that regard) in the other half of columns 23-24 (2.5 μM in final). • Standard: 50 nL of reference compound as just mentioned diluted as the test compounds in columns 21-22 • 20 mL ‘buffer’ are prepared per assay: • 200 μL of 1M TRIS HCl pH7.5 (10 mM in final) • 60 μL of 1M MgCl2 (3 mM in final) • 500 μL of 2M NaCl (50 mM in final) • 100 μL of 10% CHAPS (0.05% in final) • 200 μL of 100 mM DTT (1 mM in final) • 18.94 mL of nanopure water • 10 mL ‘PI’ are prepared per assay: • 200 μL of 1 mg/ml L-alpha-Phosphatidylinositol (Liver Bovine, Avanti Polar Lipids Cat. No. 840042C MW=909.12) prepared in 3% OctylGlucoside (10 μg/ml in final) • 9.8 mL of ‘buffer’ • 10 mL ‘ATP’ are prepared per assay: • 6.7 μL of 3 mM stock of ATP giving a final concentration of 1 μM per well • 10 mL of ‘buffer’ • 2.5 mL of each PI3K construct are prepared per assay in ‘PI’ with the following final concentration : • 10 nM PI3K alfa B-1075 • 25 nM beta BV-949 • 10 nM delta BV-1060 • 150 nM gamma BV-950 • 5 μL of ‘PI/PI3K’ are added per well. • 5 μl ‘ATP’ are added per well to start the reaction. • The plates are then incubated at room temperature for 60 minutes (alfa, beta, delta) or 120 minutes (gamma). • The reaction is terminated by the addition of 10 μL Kinase-Glo (Promega Cat. No. #6714). • The assay plates are read after 10 minutes in Synergy 2 reader (BioTek, Vermont USA) with an integration time of 100 milliseconds and sensitivity set to 191. • Output : The High control is around 60'000 counts and the Low control is 30'000 or lower • This luminescence assay gives a useful Z′ ratio between 0.4 and 0.7
1050 is determined by a four parameter curve fitting routine that comes aloneg with “excel fit”. A 4 Parameter logistic equation is used to calculate IC50 values (IDBS XLfit) of the percentage inhibition of each compound at 8 concentrations (usually 10, 3.0, 1.0, 0.3, 0.1, 0.030, 0.010 and […]). Alternatively, IC50 values are calculated using idbsXLfit model 204, which is a 4 parameter logistic model.
Testing with the following kinases in the test system mentioned above, with the kinases given in the following tables, the following IC 50 data can be obtained: […]
As to `COc1ccc(-c2ccc3ncc(-c4ccc(OC)c(OC)c4)n3n2)cc1OC` [Example 1, 3,6-Bis-(3,4-dimethoxy-phenyl)-imidazo[1,2-b]pyridazine], the IC50 worked out at 3 nM.

On to `COc1ccc(-c2ccc3ncc(-c4ccc(S(C)(=O)=O)cc4)n3n2)cc1OC` [Example 5, 6-(3,4-Dimethoxy-phenyl)-3-(4-methanesulfonyl-phenyl)-imidazo[1,2-b]pyridazine], for which the half-maximal inhibitory concentration (IC50) is 1.64 nM.

Regarding `Nc1ncc(-c2ccc3ncc(-c4cnc(N)c(C(F)(F)F)c4)n3n2)cc1C(F)(F)F` [Example 6], the half-inhibitory concentration (IC50) turned out to be 3 nM.

Consider `NC(=O)c1ccc(-c2ccc3ncc(-c4ccc(C(N)=O)cc4)n3n2)cc1` [Example 7, 4-[3-(4-Carbamoylphenyl)-imidazo[1,2-b]pyridazin-6-yl]-benzamide], for which the half-inhibitory concentration (IC50) amounted to 14 nM.

For `CCOC(=O)c1cc(-c2ccc3ncc(-c4ccc(OC)c(OC)c4)n3n2)ccc1OC` [Example 8, 5-[3-(3,4-Dimethoxy-phenyl)-imidazo[1,2-b]pyridazin-6-yl]-2-methoxy-benzoic acid ethyl ester], the concentration for half-maximal inhibition (IC50) was determined as 6 nM.

For `COc1ccccc1-c1ccc2ncc(-c3ccc(C(N)=O)cc3)n2n1` [Example 9, 4-[6-(2-Methoxy-phenyl)-imidazo[1,2-b]pyridazin-3-yl]-benzamide], the IC50 was determined as 854 nM.

Consider `COc1cc(-c2ccc3ncc(-c4cnc(N)c(C(F)(F)F)c4)n3n2)ccc1OCCCNC(=O)OC(C)(C)C` [Example 10, (3-{4-[3-(6-Amino-5-trifluoromethyl-pyridin-3-yl)-imidazo[1,2-b]pyridazin-6-yl]-2-methoxy-phenoxy}-propyl)-carbamic acid tert-butyl ester], for which the half-inhibitory concentration (IC50) turned out to be 118 nM.

Regarding `NC(=O)c1ccc(-c2ccc3ncc(-c4cnc(N)c(C(F)(F)F)c4)n3n2)cc1` [Example 11, 4-[3-(6-Amino-5-trifluoromethyl-pyridin-3-yl)-imidazo[1,2-b]pyridazin-6-yl]-benzamide], the 50% inhibitory concentration (IC50) was 372 nM.

Consider `COc1cc(-c2ccc3ncc(-c4cnc(N)c(C(F)(F)F)c4)n3n2)ccc1OCCCN` [Example 14, 5-{6-[4-(3-Amino-propoxy)-3-methoxy-phenyl]-imidazo[1,2-b]pyridazin-3-yl}-3-trifluoromethyl-pyridin-2-ylamine], for which the IC50 stood at 39 nM.

For `COc1ccc(-c2cnc3ccc(-c4ccc(OCCO)c(C(C)=O)c4)nn23)cc1OC` [Example 16, 1-[5-[3-(3,4-Dimethoxy-phenyl)-imidazo[1,2-b]pyridazin-6-yl]-2-(2-hydroxy-ethoxy)-phenyl]-ethanone], the IC50 is 135 nM.

Take `COc1cc(-c2ccc3ncc(-c4ccc(C(N)=O)cc4)n3n2)ccc1OCCCN` [Example 17, 4-{6-[4-(3-Amino-propoxy)-3-methoxy-phenyl]-imidazo[1,2-b]pyridazin-3-yl}-benzamide]: the IC50 was found to be 53 nM.

In the case of `CS(=O)(=O)c1ccc(-c2cnc3ccc(-c4cnc(N)c(C(F)(F)F)c4)nn23)cc1` [Example 18, 5-[3-(4-Methanesulfonyl-phenyl)-imidazo[1,2-b]pyridazin-6-yl]-3-trifluoro-methyl-pyridin-2-ylamine], the half-maximal inhibitory concentration (IC50) amounted to 9.5 nM.

As for `COc1ccc(-c2ccc3ncc(-c4ccc(-c5ccoc5)cc4)n3n2)cc1OC` [Example 19, 6-(3,4-Dimethoxy-phenyl)-3-(4-furan-3-yl-phenyl)-imidazo[1,2-b]pyridazine], the IC50 was found to be 120 nM.

For `COc1ccc(-c2ccc3ncc(-c4ccc(-c5ccc[nH]5)cc4)n3n2)cc1OC` [Example 20, 6-(3,4-Dimethoxy-phenyl)-3-[4-(1H-pyrrol-2-yl)-phenyl]-imidazo[1,2-b]pyridazine], the 50% inhibitory concentration (IC50) turned out to be 122 nM.

`COc1cc(-c2cnc3ccc(-c4ccc(C(N)=O)cc4)nn23)ccc1OCCCNC(=O)OC(C)(C)C` [Example 21, (3-{4-[6-(4-Carbamoyl-phenyl)-imidazo[1,2-b]pyridazin-3-yl]-2-methoxy-phenoxy}-propyl)-carbamic acid tert-butyl ester]: the IC50 was determined as 292 nM.
